Laboratory results reported in ChEMBL document CHEMBL1157320, “Hepatoprotective sesquiterpene glycosides from Sarcandra glabra” (J Nat Prod, 2006).

Columns and labels:
[1] = Cytotoxicity against rat WB-F344 cells assessed as cell survival rate at 0.1 mM by MTT method relative to control; format: cell-based; settings: read-out: Activity
[2] = Hepatoprotective activity in rat WB-F344 cells assessed as inhibition of D-galactosamine-induced toxicity at 0.1 mM by MTT method relative to control; format: functional

| SMILES | viability at 100 µM [1] [%] | inhibition at 100 µM [2] [%] |
| --- | --- | --- |
| C=C1[C@H]2C[C@H]2[C@]2(C)[C@H](O)[C@]3(O[C@@H]4O[C@H](CO)[C@@H](O)[C@H](O)[C@H]4O)OC(=O)C(C)=C3C[C@@H]12 | 45.5 | 26 |
| COC(=O)c1cc(OC)c2c(c1-c1c(CO)cc(OC)c3c1OCO3)OCO2 [BICYCLOL] | 46.6 | 27.4 |
| CC1=C2C[C@@H]3[C@@](C)(C=C2OC1=O)[C@@H]1C[C@@H]1[C@]3(O)CO[C@@H]1O[C@H](CO)[C@@H](O)[C@H](O)[C@H]1O [CHLORANOSIDE A] | 54.5 | 38.2 |
| C=C1CC[C@H](O[C@@H]2O[C@H](CO)[C@@H](O)[C@H](O)[C@H]2O)[C@]2(C)C[C@@H]3OC(=O)C(C)=C3C[C@@H]12 [SARCAGLABOSIDE A] | 47.5 | 28.7 |
| C=C1C=C[C@H](O[C@@H]2O[C@H](CO)[C@@H](O)[C@H](O)[C@H]2O)[C@]2(C)C[C@@H]3OC(=O)C(C)=C3C[C@@H]12 [SARCAGLABOSIDE B] | 74.9 | 65.9 |
| C=C[C@]1(C)C[C@@H]2OC(=O)C(C)=C2C[C@H]1C(=C)CO[C@@H]1O[C@H](CO)[C@@H](O)[C@H](O)[C@H]1O [SARCAGLABOSIDE C] | 53 | 36.1 |
| C=C[C@]1(C)C[C@@H]2OC(=O)C(C)=C2C[C@H]1C(=C)CO[C@@H]1O[C@H](CO[C@@H]2OC[C@](O)(CO)[C@H]2O)[C@@H](O)[C@H](O)[C@H]1O [SARCAGLABOSIDE D] | 46.3 | 27 |
| CC1=C2C/C=C(\CO[C@@H]3O[C@H](CO[C@@H]4OC[C@](O)(CO)[C@H]4O)[C@@H](O)[C@H](O)[C@H]3O)CC/C=C(\C)C[C@@H]2OC1=O [SARCAGLABOSIDE E] | 42.4 | 21.7 |
